PubChem BioAssay AID1963850 (Molecular Pharmacology Branch, DTP, NCI, 2024)

System: 192522-019-R-J2-PDC complex tumor spheroid viability
Assay: Anticancer human tumor 192522-019-R-J2-PDC patient-derived colon adenocarcinoma cell line growth inhibition [POLQ]
Details: for IC50: curve of first compound; for viability, T/C: stronger effect = lower value
Method in brief: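 PDC + HUVEC + MSC complex spheroids; POLQ inhibitors ± partner drugs; top conc. at/near clinical Cmax, else 10 microM (SN-38 1 microM), half-log dilutions; 37 degrees C, 5% CO2.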

[1] = second compound 0.0316 µM, first compound 0.00316 µM
[2] = second compound 0.0316 µM, first compound 0.01 µM
[3] = second compound 0.0316 µM, first compound 0.0316 µM
[4] = second compound 0.0316 µM, first compound 0.1 µM
[5] = second compound 0.0316 µM, first compound 0.316 µM
[6] = second compound 0.0316 µM, first compound 1 µM
[7] = second compound 0.1 µM, first compound 0.00316 µM
[8] = second compound 0.1 µM, first compound 0.01 µM
[9] = second compound 0.1 µM, first compound 0.0316 µM
[10] = second compound 0.1 µM, first compound 0.1 µM
[11] = second compound 0.1 µM, first compound 0.316 µM
[12] = second compound 0.1 µM, first compound 1 µM
[13] = second compound 0.316 µM, first compound 0.00316 µM
[14] = second compound 0.316 µM, first compound 0.01 µM
[15] = second compound 0.316 µM, first compound 0.0316 µM
[16] = second compound 0.316 µM, first compound 0.1 µM
[17] = second compound 0.316 µM, first compound 0.316 µM
[18] = second compound 0.316 µM, first compound 1 µM
[19] = second compound 1 µM, first compound 0.00316 µM
[20] = second compound 1 µM, first compound 0.01 µM
[21] = second compound 1 µM, first compound 0.0316 µM
[22] = second compound 1 µM, first compound 0.1 µM
[23] = second compound 1 µM, first compound 0.316 µM
[24] = second compound 1 µM, first compound 1 µM
[25] = second compound 3.16 µM, first compound 0.00316 µM
[26] = second compound 3.16 µM, first compound 0.01 µM
[27] = second compound 3.16 µM, first compound 0.0316 µM
[28] = second compound 3.16 µM, first compound 0.1 µM
[29] = second compound 3.16 µM, first compound 0.316 µM
[30] = second compound 3.16 µM, first compound 1 µM
[31] = second compound 10 µM, first compound 0.00316 µM
[32] = second compound 10 µM, first compound 0.01 µM
[33] = second compound 10 µM, first compound 0.0316 µM
[34] = second compound 10 µM, first compound 0.1 µM
[35] = second compound 10 µM, first compound 0.316 µM
[36] = second compound 10 µM, first compound 1 µM
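Note: spheroids exposed to drugs for seven days before reading.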
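Throughout, for viability, T/C: 100% = DMSO vehicle control viability in luminescence.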

SMILES: C=CCn1c(=O)c2cnc(Nc3ccc(N4CCN(C)CC4)cc3)nc2n1-c1cccc(C(C)(C)O)n1 + COC1C(OC(N)=O)C(O)C(Oc2ccc3c(O)c(NC(=O)c4ccc(O)c(CC=C(C)C)c4)c(=O)oc3c2C)OC1(C)C
- IC50 (second compound 0.0316 µM): 664 nM
- IC50 (second compound 0.1 µM): 675 nM
- IC50 (second compound 0.316 µM): 656 nM
- IC50 (second compound 1 µM): 704 nM
- IC50 (second compound 3.16 µM): 737 nM
- IC50 (second compound 10 µM): 761 nM
- viability, T/C [1]: 108%
- viability, T/C [2]: 87.3%
- viability, T/C [3]: 98.5%
- viability, T/C [4]: 93.9%
- viability, T/C [5]: 89.2%
- viability, T/C [6]: 28.2%
- viability, T/C [7]: 101%
- viability, T/C [8]: 93.8%
- viability, T/C [9]: 98%
- viability, T/C [10]: 90.3%
- viability, T/C [11]: 82.2%
- viability, T/C [12]: 33.7%
- viability, T/C [13]: 98.6%
- viability, T/C [14]: 91.6%
- viability, T/C [15]: 99.4%
- viability, T/C [16]: 105%
- viability, T/C [17]: 74.5%
- viability, T/C [18]: 35.9%
- viability, T/C [19]: 95.4%
- viability, T/C [20]: 96.1%
- viability, T/C [21]: 103%
- viability, T/C [22]: 106%
- viability, T/C [23]: 84.3%
- viability, T/C [24]: 34.9%
- viability, T/C [25]: 92.6%
- viability, T/C [26]: 95.4%
- viability, T/C [27]: 90.7%
- viability, T/C [28]: 93.5%
- viability, T/C [29]: 88%
- viability, T/C [30]: 36.2%
- viability, T/C [31]: 98.3%
- viability, T/C [32]: 97.3%
- viability, T/C [33]: 102%
- viability, T/C [34]: 90%
- viability, T/C [35]: 96.2%
- viability, T/C [36]: 35.7%

SMILES: CCc1c2c(nc3ccc(O)cc13)-c1cc3c(c(=O)n1C2)COC(=O)[C@]3(O)CC + COC1C(OC(N)=O)C(O)C(Oc2ccc3c(O)c(NC(=O)c4ccc(O)c(CC=C(C)C)c4)c(=O)oc3c2C)OC1(C)C
- IC50 (second compound 0.0316 µM): 25.4 nM
- IC50 (second compound 0.1 µM): 51.5 nM
- IC50 (second compound 0.316 µM): 41.9 nM
- IC50 (second compound 1 µM): 33.9 nM
- IC50 (second compound 3.16 µM): 42.2 nM
- IC50 (second compound 10 µM): 43.4 nM
- viability, T/C [1]: 96.3%
- viability, T/C [2]: 52.5%
- viability, T/C [3]: 52.3%
- viability, T/C [4]: 47%
- viability, T/C [5]: 35.1%
- viability, T/C [6]: 23.8%
- viability, T/C [7]: 84%
- viability, T/C [8]: 59%
- viability, T/C [9]: 55.8%
- viability, T/C [10]: 49.7%
- viability, T/C [11]: 31.7%
- viability, T/C [12]: 27.5%
- viability, T/C [13]: 83.7%
- viability, T/C [14]: 56%
- viability, T/C [15]: 53.7%
- viability, T/C [16]: 47.5%
- viability, T/C [17]: 31.4%
- viability, T/C [18]: 25.8%
- viability, T/C [19]: 82%
- viability, T/C [20]: 52.3%
- viability, T/C [21]: 57.9%
- viability, T/C [22]: 43.3%
- viability, T/C [23]: 30.1%
- viability, T/C [24]: 27.9%
- viability, T/C [25]: 86.7%
- viability, T/C [26]: 57.3%
- viability, T/C [27]: 57.9%
- viability, T/C [28]: 40.3%
- viability, T/C [29]: 35.9%
- viability, T/C [30]: 23.8%
- viability, T/C [31]: 83.3%
- viability, T/C [32]: 54.6%
- viability, T/C [33]: 59.4%
- viability, T/C [34]: 41.9%
- viability, T/C [35]: 35.5%
- viability, T/C [36]: 27.8%

SMILES: COc1cccc(OCCCN)c1-c1cc(Nc2cnc(C#N)cn2)n[nH]1 + COC1C(OC(N)=O)C(O)C(Oc2ccc3c(O)c(NC(=O)c4ccc(O)c(CC=C(C)C)c4)c(=O)oc3c2C)OC1(C)C
- IC50 (second compound 0.0316 µM): 14.3 nM
- IC50 (second compound 0.1 µM): 15.7 nM
- IC50 (second compound 0.316 µM): 15.8 nM
- IC50 (second compound 1 µM): 16.6 nM
- IC50 (second compound 3.16 µM): 18.6 nM
- IC50 (second compound 10 µM): 18.9 nM
- viability, T/C [1]: 96%
- viability, T/C [2]: 55.5%
- viability, T/C [3]: 38%
- viability, T/C [4]: 30.8%
- viability, T/C [5]: 30.7%
- viability, T/C [6]: 30.5%
- viability, T/C [7]: 94.7%
- viability, T/C [8]: 58.7%
- viability, T/C [9]: 35.3%
- viability, T/C [10]: 35%
- viability, T/C [11]: 28.9%
- viability, T/C [12]: 28.2%
- viability, T/C [13]: 90%
- viability, T/C [14]: 60.6%
- viability, T/C [15]: 33.6%
- viability, T/C [16]: 31.8%
- viability, T/C [17]: 27.2%
- viability, T/C [18]: 29.9%
- viability, T/C [19]: 84.8%
- viability, T/C [20]: 61.8%
- viability, T/C [21]: 35.2%
- viability, T/C [22]: 30.1%
- viability, T/C [23]: 30.9%
- viability, T/C [24]: 30.5%
- viability, T/C [25]: 87.6%
- viability, T/C [26]: 69.5%
- viability, T/C [27]: 33.3%
- viability, T/C [28]: 28.9%
- viability, T/C [29]: 35.6%
- viability, T/C [30]: 32.1%
- viability, T/C [31]: 89.7%
- viability, T/C [32]: 64.6%
- viability, T/C [33]: 38.4%
- viability, T/C [34]: 32%
- viability, T/C [35]: 32.5%
- viability, T/C [36]: 34%

SMILES: Nc1ccn(C2OC(CO)C(O)C2(F)F)c(=O)n1 (stereo not drawn) + COC1C(OC(N)=O)C(O)C(Oc2ccc3c(O)c(NC(=O)c4ccc(O)c(CC=C(C)C)c4)c(=O)oc3c2C)OC1(C)C
- IC50 (second compound 0.0316 µM): > 10000 nM
- IC50 (second compound 0.1 µM): > 10000 nM
- IC50 (second compound 0.316 µM): > 10000 nM
- IC50 (second compound 1 µM): > 10000 nM
- IC50 (second compound 3.16 µM): > 10000 nM
- IC50 (second compound 10 µM): > 10000 nM
- viability, T/C [3]: 98.8%
- viability, T/C [4]: 72.9%
- viability, T/C [5]: 75.7%
- viability, T/C [6]: 63.5%
- viability, T/C (second compound 0.0316 µM, first compound 3.16 µM): 66%
- viability, T/C (second compound 0.0316 µM, first compound 10 µM): 53.9%
- viability, T/C [9]: 95.6%
- viability, T/C [10]: 80.1%
- viability, T/C [11]: 76.5%
- viability, T/C [12]: 66%
- viability, T/C (second compound 0.1 µM, first compound 3.16 µM): 58%
- viability, T/C (second compound 0.1 µM, first compound 10 µM): 57.3%
- viability, T/C [15]: 90.2%
- viability, T/C [16]: 79.7%
- viability, T/C [17]: 72.6%
- viability, T/C [18]: 62.4%
- viability, T/C (second compound 0.316 µM, first compound 3.16 µM): 60.3%
- viability, T/C (second compound 0.316 µM, first compound 10 µM): 59.5%
- viability, T/C [21]: 86.1%
- viability, T/C [22]: 84.9%
- viability, T/C [23]: 73.9%
- viability, T/C [24]: 72%
- viability, T/C (second compound 1 µM, first compound 3.16 µM): 56.2%
- viability, T/C (second compound 1 µM, first compound 10 µM): 58.4%
- viability, T/C [27]: 91.9%
- viability, T/C [28]: 87.3%
- viability, T/C [29]: 74.8%
- viability, T/C [30]: 62.9%
- viability, T/C (second compound 3.16 µM, first compound 3.16 µM): 62.6%
- viability, T/C (second compound 3.16 µM, first compound 10 µM): 53.5%
- viability, T/C [33]: 95.8%
- viability, T/C [34]: 89.4%
- viability, T/C [35]: 75.7%
- viability, T/C [36]: 65.1%
- viability, T/C (second compound 10 µM, first compound 3.16 µM): 66.9%
- viability, T/C (second compound 10 µM, first compound 10 µM): 58.7%
